Measured values as given in patent publication US11260036B2, “[18F]-labelled lactate derivative as PET radiotracer” (GRANDIS, priority 2016, dated 2022).

What was measured:
rabbit muscle LDH = target: T1, rabbit muscle LDH (Oryctolagus cuniculus, UniProt P13491); test: Lactate dehydrogenase assay (reduction of 3-fluoropyruvate); type: biochemical; details: 10 IU rabbit muscle LDH, NADH 0.2 mM, 37° C., 24 h, HPLC-MS detection
T1 construct: 10 IU of rabbit muscle LDH (Sigma); purchased Sigma; host or cells: rabbit muscle
Protocol: A potential reduction of 3-fluoropyruvate to 3-fluoro-2-hydroxypropionate by lactate dehydrogenase (LDH) was measured in vitro using a previously reported protocol (Goncalves et al., Tetrahedron: Asymmetry, 1996, 7, 1237-1240).
Briefly, 14.6 mg of nonradioactive 3-fluorpyruvate were dissolved in 4 mL of double distilled water containing 10 IU of rabbit muscle LDH (Sigma) and 5.3 IU of formate dehydrogenase (Sigma). The reaction was started by adding NADH to a final concentration of 0.2 mM and sodium formate to a final concentration of 40 mM. The final volume was adjusted to 5 mL with double distilled water. The reaction was carried out at 37° C. for 24 h under constant, gentle shaking at 120 rpm. Then, solution was spun through a 10 kDa filter to remove enzymes, and 3-fluoro-2-hydroxypropionate was detected by HPLC-MS using an Accela U(HPLC) equipped with a Luna Phenomenex 250*4.60 HPLC column and an ThermoScientific LTQ—ORBITRAP—XL fitted an electrospray ionization source working in negative mode.

HeLa cells = test: In vitro tracer uptake assay, HeLa; type: cell-based, human; details: 6 min after delivery of 45 μCi/ml of the tracer
Description: (§1) Cells and gene silencing. HeLa and SiHa human cervix squamous cell carcinoma and SDQ9 human laryngeal squamous cell carcinoma were from ATCC. Cells were routinely cultured in DMEM (Thermo Fischer) containing glucose (4.5 g/L), Glutamax and 10% FBS. MCT1-deficient and control SiHa cells were produced as previously described (De Saedeleer et al., Oncogene, 2014, 33, 4060-4068), using the following vectors from Open Biosystems: TRCN0000038340 (shMCT1-1) and TRCN0000038339 (shMCT1-2). Control shRNA (shCTR) was Addgene plasmid 1864.
(§2) In vitro tracer uptake assay. A modified version of the ^14C-Lactate uptake assay described by Draoui et al., (Draoui et al., Bioorg Med Chem, 2013, 21, 7107-7117) was used. Briefly, 250,000 cells were plated in flat-bottom 24 well plates (t=0). When cells were attached (t=6 h), medium was replaced by DMEM without glucose and glutamine, containing 10% dialyzed FBS and 10 mM of L-lactate, pH 7.0. Cells were then incubated overnight at 37° C., 5% CO2. On the day of experiment, (t=24 h), cells medium was removed and cells were briefly washed twice with a modified KREBS solution without glucose (HEPES 25 mM, NaCl 120 mM, KCl 4.8 mM, KH2PO4 1.2 mM, MgSO4 1.2 mM, CaCl2 2 mM). […] Cells were lysed with NaOH 0.1 N, and ^18F activity was measured in the cell lysate using a Wiper Gold γ-counter (Laboratory Technologies). Activity is expressed as % of initial dose. […]

SQD9 tumors = test: In vivo tracer uptake assay (PET/CT), mice bearing SQD9 tumors; details: IV 250 μCi, PET-CT
Protocol: In vivo tracer uptake assay. All in vivo experiments were performed with approval of UCL Comité d'Ethique pour l'Expérimentation Animale (approval ID 2014/UCL/MD/014) according to national and European animal care regulations. To avoid inter-subject variability, 500,000 SiHa-shCTR and SiHa-shMCT1 cells in a HBSS:Matrigel 1:1 solution were respectively injected in the left and right flank of same 6.5 week-old male NMRI nude mice. In another model, 1,000,000 SQD9 cells in a HBSS:Matrigel 1:1 solution were injected on the back of same 6.5 week-old male NMRI nude mice. Experiments were performed on tumors of ˜10 mm in diameter, i.e., about 3 weeks tumor cell inoculation. For intravenous injection, MCT1 inhibitor AR-C155858 (Tocris) was dissolved in 0.9% NaCl with 10% (2-hydroxypropyl)-β-cyclodextrin at a concentration of 2.5 mg/ml (Vijay et al., Pharm Res, 2015, 32, 1894-1906). For intravenous injection, MCT1 inhibitor AZD3965 (Selleckchem) was first dissolved in pure ethanol at a concentration of 100 mg/ml, then diluted in 0.9% NaCl with 10% (2-hydroxypropyl)-β-cyclodextrin at a final concentration of 2.5 mg/ml. […] Tumor localization was determined on PET/CT fused images. […] Tracer uptake is expressed as standard uptake value (SUV) calculated on the mean value of voxels within the manually defined 3D volume of interest (VOI).

SiHa cells = test: In vitro tracer uptake assay, SiHa; type: cell-based, human; details: 6 min after delivery of 45 μCi/ml of the tracer
Description: as §1, §2

SiHa tumors = test: In vivo tracer uptake assay (PET/CT), mice bearing SiHa-shCTR and SiHa-shMCT1 tumors
Protocol: In vivo tracer uptake assay. All in vivo experiments were performed with approval of UCL Comité d'Ethique pour l'Expérimentation Animale (approval ID 2014/UCL/MD/014) according to national and European animal care regulations. To avoid inter-subject variability, 500,000 SiHa-shCTR and SiHa-shMCT1 cells in a HBSS:Matrigel 1:1 solution were respectively injected in the left and right flank of same 6.5 week-old male NMRI nude mice. In another model, 1,000,000 SQD9 cells in a HBSS:Matrigel 1:1 solution were injected on the back of same 6.5 week-old male NMRI nude mice. Experiments were performed on tumors of ˜10 mm in diameter, i.e., about 3 weeks tumor cell inoculation. For intravenous injection, MCT1 inhibitor AR-C155858 (Tocris) was dissolved in 0.9% NaCl with 10% (2-hydroxypropyl)-β-cyclodextrin at a concentration of 2.5 mg/ml (Vijay et al., Pharm Res, 2015, 32, 1894-1906). For intravenous injection, MCT1 inhibitor AZD3965 (Selleckchem) was first dissolved in pure ethanol at a concentration of 100 mg/ml, then diluted in 0.9% NaCl with 10% (2-hydroxypropyl)-β-cyclodextrin at a final concentration of 2.5 mg/ml. (±)-[^18F]-3-fluoro-2-hydroxypropionate (150-250 μCO was injected in the tail vein of the animals 10 min after the delivery of AR-C155858 (5 mg/Kg), AZD3965 (5 mg/Kg), or vehicle (70 μL). At indicated times, a whole body 10-min static PET imaging (small-animal Mosaic PET Scan system, Philips Medical Systems) directly followed by a 10 min transmission CT scan (NanoSPECT/CT Small Animal Imager, Bioscan; source: 370 MBq ^137Cs; X-Ray tube voltage: 55 kVp; number of projections: 180; exposure time 1000 ms) were performed on isoflurane-anesthetized mice kept at 35° C. PET images were corrected for attenuation and reconstructed using fully 3D iterative algorithm 3D-RAMLA in a 128×128×120 matrix, with a voxel size of 1 mm^3. CT images were reconstructed with a voxel size of 0.221×0.221×0.221 mm^3. 2D Regions of interest (ROIs) were manually delineated on PET images using the PMOD software version 3.5 (PMOD technologies Ltd). Tumor localization was determined on PET/CT fused images. Ribcage and skin were used as internal and external limits, respectively. Tracer uptake is expressed as standard uptake value (SUV) calculated on the mean value of voxels within the manually defined 3D volume of interest (VOI).

SQD9 cells = test: In vitro tracer uptake assay, SQD9; type: cell-based, human; details: SQD9, 6 min after delivery of 45 μCi/ml of the tracer
Description: as §1, §2

MCT1 = target: T2, MCT1 (Homo sapiens, UniProt P53985); test: In vivo inhibition of tracer uptake by MCT1 inhibitors, SQD9 tumor-bearing mice (PET/CT); details: 5 mg/Kg IV 10 min before tracer, images 30 min after tracer; SQD9 tumors, liver
T2 construct: the experiment was repeated using SQD9 human laryngeal squamous cell carcinoma cells in mice; endogenous in cells; host or cells: SQD9 xenograft tumours in NMRI nude mice
T2 sequence (P53985 1-500): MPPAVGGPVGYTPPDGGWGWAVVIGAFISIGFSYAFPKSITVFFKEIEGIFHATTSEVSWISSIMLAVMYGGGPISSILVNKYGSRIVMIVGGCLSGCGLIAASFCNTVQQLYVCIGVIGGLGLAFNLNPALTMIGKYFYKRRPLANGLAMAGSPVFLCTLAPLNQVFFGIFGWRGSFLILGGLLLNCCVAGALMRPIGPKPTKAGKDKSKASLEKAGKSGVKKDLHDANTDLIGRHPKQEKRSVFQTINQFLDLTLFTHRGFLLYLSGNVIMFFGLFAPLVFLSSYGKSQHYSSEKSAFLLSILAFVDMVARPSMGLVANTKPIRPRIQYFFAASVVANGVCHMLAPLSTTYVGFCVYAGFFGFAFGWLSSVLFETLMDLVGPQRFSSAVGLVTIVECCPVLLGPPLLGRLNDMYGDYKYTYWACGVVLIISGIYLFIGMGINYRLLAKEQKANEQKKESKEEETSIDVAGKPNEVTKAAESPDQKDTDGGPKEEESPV
T2 sequence (P35613 140-385 partner limits assumed): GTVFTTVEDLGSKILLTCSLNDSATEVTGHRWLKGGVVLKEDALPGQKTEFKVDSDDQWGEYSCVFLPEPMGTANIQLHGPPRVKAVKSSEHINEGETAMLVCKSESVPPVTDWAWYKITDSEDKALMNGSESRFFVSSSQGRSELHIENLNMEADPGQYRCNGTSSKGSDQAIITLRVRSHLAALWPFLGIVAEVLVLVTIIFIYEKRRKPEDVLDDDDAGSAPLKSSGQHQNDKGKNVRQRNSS
Protocol: In vivo tracer uptake assay. […] In another model, 1,000,000 SQD9 cells in a HBSS:Matrigel 1:1 solution were injected on the back of same 6.5 week-old male NMRI nude mice. Experiments were performed on tumors of ˜10 mm in diameter, i.e., about 3 weeks tumor cell inoculation. […] 2D Regions of interest (ROIs) were manually delineated on PET images using the PMOD software version 3.5 (PMOD technologies Ltd). Tumor localization was determined on PET/CT fused images. Ribcage and skin were used as internal and external limits, respectively. Tracer uptake is expressed as standard uptake value (SUV) calculated on the mean value of voxels within the manually defined 3D volume of interest (VOI).

3-fluoropyruvate
reduction of 3-fluoropyruvate to 3-fluoro-2-hydroxypropionate by LDH (rabbit muscle LDH): can be reduced to 3-fluoralacate by lactate dehydrogenase (LDH)

O=C(O)C(O)C[18F] (racemic) [(±)-[^18F]-3-fluoro-2-hydroxypropionate, [^18F]-3-fluoro-2-hydroxypropionic acid]
intracellular 18F dose (HeLa cells): ~0.1 % of the initial dose | tracer uptake by SQD9 tumors (SQD9 tumors): the tumors captured and accumulated the tracer | intracellular 18F dose (SiHa cells): ~0.1 % of the initial dose | bone labeling indicating defluorination (SiHa tumors; 30 min after tracer injection): no detectable bone labeling | discrimination of SiHa-shCTR and SiHa-shMCT1 tumors by the tracer (SiHa tumors; 30 min after tracer injection): no apparent discrimination of SiHa-shCTR and SiHa-shMCT1 | bone labeling indicating defluorination (SiHa tumors; 60 min after tracer injection): spinal and joint labeling was detected, indicating that some defluorination had occurred | time of best tumor contrast after tracer injection (SiHa tumors; IV 150-250 μCi, PET/CT): 30 min | labeling of other organs (tracer distribution) (SiHa tumors; IV 150-250 μCi, PET/CT, 30 min after tracer injection): the gut and the liver, were also labeled | route of tracer clearance (SiHa tumors; bladder labeling before and after systemic MCT1 inhibition): urine is the preferred route | intracellular 18F dose (SQD9 cells): ~0.3 % of the initial dose

Cc1[nH]nc(C(F)(F)F)c1Cc1sc2c(c1C(=O)N1C[C@](C)(O)CO1)c(=O)n(C)c(=O)n2C(C)C [AZD3965]
change in tracer uptake (SUV) after MCT1 inhibitor (MCT1): highly significant decrease in tracer uptake in the tumors and liver
